Publication PMC5290327, “SC83288 is a clinical development candidate for the treatment of severe malaria” (Nature Communications, 2017)

Columns and labels:
Experiment in all cases: KINOMEscan
Type in all cases: binding
Details in all cases: read-out: Remaining enzyme activity
AAK1 = target: T1, AAK1 (Homo sapiens, UniProt Q2M2I8)
T1 construct: purchased Ambit (DiscoverX) KINOMEscan; Cerep
Summary of the method: (§1)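 Each kinase, tagged with DNA, is partitioned between test compound and an immobilized active-site ligand; qPCR of the eluate reports the bound fraction. SC81458 dosed once, 10 μM final concentration.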

ABL2 = target: T2, ABL2 (Homo sapiens, UniProt P42684)
T2 construct: purchased Ambit (DiscoverX) KINOMEscan; Cerep
Summary of the method: as §1

ACVR1b = target: T3, ACVR1b (Homo sapiens, UniProt P36896)
T3 construct: purchased Ambit (DiscoverX) KINOMEscan; Cerep
Summary of the method: as §1

ANKK1 = target: T4, ANKK1 (Homo sapiens, UniProt Q8NFD2)
T4 construct: purchased Ambit (DiscoverX) KINOMEscan; Cerep
T4 sequence (Q8NFD2 whole entry): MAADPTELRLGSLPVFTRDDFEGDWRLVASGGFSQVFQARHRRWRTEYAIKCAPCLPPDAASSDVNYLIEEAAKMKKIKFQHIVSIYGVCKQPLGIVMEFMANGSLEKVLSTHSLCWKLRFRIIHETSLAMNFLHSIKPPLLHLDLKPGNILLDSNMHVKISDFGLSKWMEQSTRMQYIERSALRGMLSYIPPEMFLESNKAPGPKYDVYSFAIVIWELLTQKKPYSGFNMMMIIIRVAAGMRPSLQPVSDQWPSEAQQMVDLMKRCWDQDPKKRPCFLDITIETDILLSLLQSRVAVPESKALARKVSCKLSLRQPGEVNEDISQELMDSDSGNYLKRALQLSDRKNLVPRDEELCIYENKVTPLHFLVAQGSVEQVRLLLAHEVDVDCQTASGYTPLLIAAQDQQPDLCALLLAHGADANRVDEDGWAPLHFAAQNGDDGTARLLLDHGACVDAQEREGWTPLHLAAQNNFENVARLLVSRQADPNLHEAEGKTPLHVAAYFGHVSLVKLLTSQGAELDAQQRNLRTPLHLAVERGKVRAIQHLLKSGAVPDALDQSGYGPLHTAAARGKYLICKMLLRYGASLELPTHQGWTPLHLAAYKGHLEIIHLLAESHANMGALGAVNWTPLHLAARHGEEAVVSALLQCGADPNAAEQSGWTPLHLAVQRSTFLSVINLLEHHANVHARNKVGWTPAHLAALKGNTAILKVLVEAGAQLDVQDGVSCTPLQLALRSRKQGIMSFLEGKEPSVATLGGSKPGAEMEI
Summary of the method: as §1

BRAF(V600E) = target: T5, BRAF(V600E) (Homo sapiens, UniProt P15056, V600E)
T5 construct: purchased Ambit (DiscoverX) KINOMEscan; Cerep
Summary of the method: as §1

CAMK2g = target: T6, CAMK2g (Homo sapiens, UniProt Q13555)
T6 construct: purchased Ambit (DiscoverX) KINOMEscan; Cerep
T6 sequence (Q13555 whole entry): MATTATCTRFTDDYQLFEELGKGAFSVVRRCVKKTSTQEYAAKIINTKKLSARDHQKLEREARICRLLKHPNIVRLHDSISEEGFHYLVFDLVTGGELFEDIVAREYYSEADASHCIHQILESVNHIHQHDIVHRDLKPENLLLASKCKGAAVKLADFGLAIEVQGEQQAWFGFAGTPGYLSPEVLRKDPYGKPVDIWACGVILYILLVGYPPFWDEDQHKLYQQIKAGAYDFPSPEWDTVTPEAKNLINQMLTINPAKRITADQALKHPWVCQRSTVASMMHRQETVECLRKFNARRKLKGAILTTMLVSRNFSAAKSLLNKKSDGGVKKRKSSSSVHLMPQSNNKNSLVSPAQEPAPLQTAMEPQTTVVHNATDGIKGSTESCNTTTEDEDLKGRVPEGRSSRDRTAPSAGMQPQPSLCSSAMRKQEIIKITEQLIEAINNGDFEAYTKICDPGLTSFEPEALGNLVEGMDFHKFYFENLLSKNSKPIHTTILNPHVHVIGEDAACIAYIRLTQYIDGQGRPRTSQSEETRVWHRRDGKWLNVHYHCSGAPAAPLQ
Summary of the method: as §1

CDKL2 = target: T7, CDKL2 (Homo sapiens, UniProt Q92772)
T7 construct: purchased Ambit (DiscoverX) KINOMEscan; Cerep
Summary of the method: as §1

CDKL5 = target: T8, CDKL5 (Homo sapiens, UniProt O76039)
T8 construct: purchased Ambit (DiscoverX) KINOMEscan; Cerep
Summary of the method: as §1

CLK1 = target: T9, CLK1 (Homo sapiens, UniProt P49759)
T9 construct: purchased Ambit (DiscoverX) KINOMEscan; Cerep
Summary of the method: as §1

CSK = target: T10, CSK (Homo sapiens, UniProt P41240)
T10 construct: purchased Ambit (DiscoverX) KINOMEscan; Cerep
Summary of the method: as §1

EGFR(L858R) = target: T11, EGFR(L858R) (Homo sapiens, UniProt P00533, L858R)
T11 construct: purchased Ambit (DiscoverX) KINOMEscan; Cerep
Summary of the method: as §1

EGFR(S752-I759del) = target: T12, EGFR(S752-I759del) (Homo sapiens, UniProt P00533, DEL752-759)
T12 construct: purchased Ambit (DiscoverX) KINOMEscan; Cerep
Summary of the method: as §1

FES = target: T13, FES (Homo sapiens, UniProt P07332)
T13 construct: purchased Ambit (DiscoverX) KINOMEscan; Cerep
T13 sequence (P07332 whole entry): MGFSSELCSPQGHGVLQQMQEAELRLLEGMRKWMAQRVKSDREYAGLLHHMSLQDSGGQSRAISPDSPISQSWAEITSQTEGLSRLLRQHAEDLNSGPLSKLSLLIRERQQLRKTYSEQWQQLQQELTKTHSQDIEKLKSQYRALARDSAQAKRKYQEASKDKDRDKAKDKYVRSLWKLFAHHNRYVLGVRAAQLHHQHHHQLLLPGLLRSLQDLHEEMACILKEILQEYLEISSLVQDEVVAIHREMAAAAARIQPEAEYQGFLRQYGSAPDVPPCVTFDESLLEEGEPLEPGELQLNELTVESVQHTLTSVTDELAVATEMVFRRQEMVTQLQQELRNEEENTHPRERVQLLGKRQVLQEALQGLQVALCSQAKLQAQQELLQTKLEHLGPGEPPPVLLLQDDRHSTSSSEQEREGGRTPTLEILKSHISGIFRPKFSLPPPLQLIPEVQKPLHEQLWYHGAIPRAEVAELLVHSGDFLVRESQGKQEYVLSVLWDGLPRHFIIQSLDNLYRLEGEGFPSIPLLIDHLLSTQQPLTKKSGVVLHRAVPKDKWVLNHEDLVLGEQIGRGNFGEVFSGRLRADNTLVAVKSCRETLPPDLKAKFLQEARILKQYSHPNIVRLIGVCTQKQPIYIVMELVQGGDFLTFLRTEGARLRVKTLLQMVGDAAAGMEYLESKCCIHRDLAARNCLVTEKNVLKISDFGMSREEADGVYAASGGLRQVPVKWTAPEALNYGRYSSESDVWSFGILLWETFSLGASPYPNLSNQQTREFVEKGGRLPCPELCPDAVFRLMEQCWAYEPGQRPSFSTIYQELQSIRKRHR
Summary of the method: as §1

FGFR3(G697C) = target: T14, FGFR3(G697C) (Homo sapiens, UniProt P22607, G697C)
T14 construct: purchased Ambit (DiscoverX) KINOMEscan; Cerep
Summary of the method: as §1

HIPK4 = target: T15, HIPK4 (Homo sapiens, UniProt Q8NE63)
T15 construct: purchased Ambit (DiscoverX) KINOMEscan; Cerep
Summary of the method: as §1

IKK-beta = target: T16, IKK-beta (Homo sapiens, UniProt O14920)
T16 construct: purchased Ambit (DiscoverX) KINOMEscan; Cerep
Summary of the method: as §1

[1] = target: T17, JAK3(JH1domain-catalytic) (Homo sapiens, UniProt P52333)
T17 construct: JAK3(JH1domain-catalytic); purchased Ambit (DiscoverX) KINOMEscan; Cerep
Summary of the method: as §1

JNK2 = target: T18, JNK2 (Homo sapiens, UniProt P45984)
T18 construct: purchased Ambit (DiscoverX) KINOMEscan; Cerep
Summary of the method: as §1

MEK3 = target: T19, MEK3 (Homo sapiens, UniProt P46734)
T19 construct: purchased Ambit (DiscoverX) KINOMEscan; Cerep
Summary of the method: as §1

MERTK = target: T20, MERTK (Homo sapiens, UniProt Q12866)
T20 construct: purchased Ambit (DiscoverX) KINOMEscan; Cerep
Summary of the method: as §1

MKNK2 = target: T21, MKNK2 (Homo sapiens, UniProt Q9HBH9)
T21 construct: purchased Ambit (DiscoverX) KINOMEscan; Cerep
Summary of the method: as §1

MLK1 = target: T22, MLK1 (Homo sapiens, UniProt P80192)
T22 construct: purchased Ambit (DiscoverX) KINOMEscan; Cerep
Summary of the method: as §1

MLK2 = target: T23, MLK2 (Homo sapiens, UniProt Q02779)
T23 construct: purchased Ambit (DiscoverX) KINOMEscan; Cerep
T23 sequence (Q02779 whole entry): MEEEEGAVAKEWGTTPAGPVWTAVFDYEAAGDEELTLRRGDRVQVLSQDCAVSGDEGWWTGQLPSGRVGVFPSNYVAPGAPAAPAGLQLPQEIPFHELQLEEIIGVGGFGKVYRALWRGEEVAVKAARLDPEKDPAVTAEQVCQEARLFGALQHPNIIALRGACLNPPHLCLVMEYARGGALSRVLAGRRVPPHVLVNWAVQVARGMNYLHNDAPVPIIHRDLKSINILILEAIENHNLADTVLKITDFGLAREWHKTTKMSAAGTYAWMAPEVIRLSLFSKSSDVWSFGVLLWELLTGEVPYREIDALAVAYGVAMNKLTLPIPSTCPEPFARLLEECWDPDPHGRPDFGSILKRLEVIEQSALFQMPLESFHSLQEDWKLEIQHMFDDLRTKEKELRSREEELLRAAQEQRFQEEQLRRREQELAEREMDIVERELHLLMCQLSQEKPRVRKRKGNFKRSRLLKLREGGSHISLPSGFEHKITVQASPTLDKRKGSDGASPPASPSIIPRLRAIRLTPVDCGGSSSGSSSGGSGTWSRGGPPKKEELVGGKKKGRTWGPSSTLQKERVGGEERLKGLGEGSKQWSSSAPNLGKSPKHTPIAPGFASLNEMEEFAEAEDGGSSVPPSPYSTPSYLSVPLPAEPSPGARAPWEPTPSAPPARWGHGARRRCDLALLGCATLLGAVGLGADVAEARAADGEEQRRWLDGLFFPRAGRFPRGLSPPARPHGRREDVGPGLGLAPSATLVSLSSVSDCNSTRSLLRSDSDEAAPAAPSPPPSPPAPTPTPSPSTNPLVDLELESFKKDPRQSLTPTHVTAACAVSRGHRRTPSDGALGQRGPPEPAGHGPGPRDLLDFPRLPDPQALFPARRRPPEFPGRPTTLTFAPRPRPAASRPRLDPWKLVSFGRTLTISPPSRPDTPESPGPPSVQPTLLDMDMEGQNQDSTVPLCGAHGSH
Summary of the method: as §1

MLK3 = target: T24, MLK3 (Homo sapiens, UniProt Q16584)
T24 construct: purchased Ambit (DiscoverX) KINOMEscan; Cerep
T24 sequence (Q16584 whole entry): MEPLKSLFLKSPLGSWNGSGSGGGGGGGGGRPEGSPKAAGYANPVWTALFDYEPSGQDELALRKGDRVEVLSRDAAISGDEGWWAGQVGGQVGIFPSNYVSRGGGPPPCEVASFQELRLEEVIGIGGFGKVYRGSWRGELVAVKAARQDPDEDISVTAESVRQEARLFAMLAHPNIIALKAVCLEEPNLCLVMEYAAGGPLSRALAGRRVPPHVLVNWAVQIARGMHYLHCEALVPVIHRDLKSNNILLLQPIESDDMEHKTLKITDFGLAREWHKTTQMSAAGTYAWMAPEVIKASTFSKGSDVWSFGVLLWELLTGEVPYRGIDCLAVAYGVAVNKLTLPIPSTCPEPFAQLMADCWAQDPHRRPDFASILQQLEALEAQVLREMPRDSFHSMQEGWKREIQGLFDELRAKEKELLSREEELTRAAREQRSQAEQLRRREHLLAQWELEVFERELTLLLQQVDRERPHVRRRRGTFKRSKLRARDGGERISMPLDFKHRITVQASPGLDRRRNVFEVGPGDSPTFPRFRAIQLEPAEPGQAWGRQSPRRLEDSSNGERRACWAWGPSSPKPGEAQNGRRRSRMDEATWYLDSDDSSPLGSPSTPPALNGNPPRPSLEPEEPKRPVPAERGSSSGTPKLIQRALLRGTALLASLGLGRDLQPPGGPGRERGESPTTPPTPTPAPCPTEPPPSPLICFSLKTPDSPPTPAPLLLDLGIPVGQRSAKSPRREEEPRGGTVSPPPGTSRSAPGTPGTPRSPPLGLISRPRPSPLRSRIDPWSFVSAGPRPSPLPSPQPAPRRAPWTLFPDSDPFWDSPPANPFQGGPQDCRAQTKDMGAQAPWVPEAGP
Summary of the method: as §1

OSR1 = target: T25, OSR1 (Homo sapiens, UniProt O95747)
T25 construct: purchased Ambit (DiscoverX) KINOMEscan; Cerep
Summary of the method: as §1

PIK3C2g = target: T26, PIK3C2g (Homo sapiens, UniProt O75747)
T26 construct: purchased Ambit (DiscoverX) KINOMEscan; Cerep
Summary of the method: as §1

PIM2 = target: T27, PIM2 (Homo sapiens, UniProt Q9P1W9)
T27 construct: purchased Ambit (DiscoverX) KINOMEscan; Cerep
Summary of the method: as §1

PRKD2 = target: T28, PRKD2 (Homo sapiens, UniProt Q9BZL6)
T28 construct: purchased Ambit (DiscoverX) KINOMEscan; Cerep
Summary of the method: as §1

RAF1 = target: T29, RAF1 (Homo sapiens, UniProt P04049)
T29 construct: purchased Ambit (DiscoverX) KINOMEscan; Cerep
Summary of the method: as §1

[2] = target: T30, RPS6KA5(Kin.Dom.1-N-term) (Homo sapiens, UniProt O75582)
T30 construct: RPS6KA5(Kin.Dom.1-N-term); purchased Ambit (DiscoverX) KINOMEscan; Cerep
Summary of the method: as §1

SRPK2 = target: T31, SRPK2 (Homo sapiens, UniProt P78362)
T31 construct: purchased Ambit (DiscoverX) KINOMEscan; Cerep
Summary of the method: as §1

TLK1 = target: T32, TLK1 (Homo sapiens, UniProt Q9UKI8)
T32 construct: purchased Ambit (DiscoverX) KINOMEscan; Cerep
Summary of the method: as §1

TXK = target: T33, TXK (Homo sapiens, UniProt P42681)
T33 construct: purchased Ambit (DiscoverX) KINOMEscan; Cerep
Summary of the method: as §1

T1 sequence (Q2M2I8 whole entry): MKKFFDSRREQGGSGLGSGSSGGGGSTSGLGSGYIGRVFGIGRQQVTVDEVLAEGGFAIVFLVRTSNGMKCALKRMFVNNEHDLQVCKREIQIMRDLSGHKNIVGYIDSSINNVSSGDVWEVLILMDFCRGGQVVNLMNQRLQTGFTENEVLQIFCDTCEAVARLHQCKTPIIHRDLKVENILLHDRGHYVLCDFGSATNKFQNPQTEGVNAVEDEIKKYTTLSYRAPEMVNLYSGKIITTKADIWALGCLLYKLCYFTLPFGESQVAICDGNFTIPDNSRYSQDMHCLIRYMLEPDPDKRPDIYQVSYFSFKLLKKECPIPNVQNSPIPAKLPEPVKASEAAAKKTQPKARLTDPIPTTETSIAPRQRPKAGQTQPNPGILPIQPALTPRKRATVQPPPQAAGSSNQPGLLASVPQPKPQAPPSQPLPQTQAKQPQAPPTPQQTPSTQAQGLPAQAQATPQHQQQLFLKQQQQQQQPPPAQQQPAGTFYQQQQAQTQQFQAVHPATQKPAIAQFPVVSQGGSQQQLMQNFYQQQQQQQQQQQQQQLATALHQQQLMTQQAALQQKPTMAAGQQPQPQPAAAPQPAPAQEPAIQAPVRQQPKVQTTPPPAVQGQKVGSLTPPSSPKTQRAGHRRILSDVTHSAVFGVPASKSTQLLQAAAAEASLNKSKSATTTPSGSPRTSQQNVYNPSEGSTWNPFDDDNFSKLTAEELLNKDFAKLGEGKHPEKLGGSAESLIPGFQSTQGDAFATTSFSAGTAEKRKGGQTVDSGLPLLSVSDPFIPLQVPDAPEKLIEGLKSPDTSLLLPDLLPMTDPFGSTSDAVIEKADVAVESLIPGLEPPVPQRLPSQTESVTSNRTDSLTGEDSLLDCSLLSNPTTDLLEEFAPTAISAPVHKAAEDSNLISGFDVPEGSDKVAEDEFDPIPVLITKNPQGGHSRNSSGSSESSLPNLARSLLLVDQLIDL

CCCCN1CCN(C(=N)c2cccc(NC(=O)Nc3ccc(S(=O)(=O)NCc4ccc(S(N)(=O)=O)cc4)cc3)c2)CC1 [SC81458, 4-(3-(3-((4-butylpiperazin-1-yl)(imino)methyl)phenyl)ureido)-N-(4-sulfamoylbenzyl) benzenesulfonamide]
remaining binding at 10 µM (AAK1): 100% | remaining binding at 10 µM (ABL2): 77% | remaining binding at 10 µM (ACVR1b): 100% | remaining binding at 10 µM (ANKK1): 99% | remaining binding at 10 µM (BRAF(V600E)): 100% | remaining binding at 10 µM (CAMK2g): 100% | remaining binding at 10 µM (CDKL2): 100% | remaining binding at 10 µM (CDKL5): 100% | remaining binding at 10 µM (CLK1): 100% | remaining binding at 10 µM (CSK): 100% | remaining binding at 10 µM (EGFR(L858R)): 92% | remaining binding at 10 µM (EGFR(S752-I759del)): 99% | remaining binding at 10 µM (FES): 100% | remaining binding at 10 µM (FGFR3(G697C)): 100% | remaining binding at 10 µM (HIPK4): 100% | remaining binding at 10 µM (IKK-beta): 100% | remaining binding at 10 µM [1]: 100% | remaining binding at 10 µM (JNK2): 97% | remaining binding at 10 µM (MEK3): 100% | remaining binding at 10 µM (MERTK): 100% | remaining binding at 10 µM (MKNK2): 100% | remaining binding at 10 µM (MLK1): 64% | remaining binding at 10 µM (MLK2): 100% | remaining binding at 10 µM (MLK3): 100% | remaining binding at 10 µM (OSR1): 100% | remaining binding at 10 µM (PIK3C2g): 100% | remaining binding at 10 µM (PIM2): 87% | remaining binding at 10 µM (PRKD2): 97% | remaining binding at 10 µM (RAF1): 100% | remaining binding at 10 µM [2]: 96% | remaining binding at 10 µM (SRPK2): 93% | remaining binding at 10 µM (TLK1): 100% | remaining binding at 10 µM (TXK): 87%
